How the values were obtained:
Format in all cases: in vivo
Solanum nigrum (SOLNI) [1] = assay: Pre-emergence herbicidal glasshouse test on Solanum nigrum; conditions: pre-emergence; 1000 g/h; evaluated after 13 days
Summary of the method: (§1)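 Scoring scale: 5=80-100%, 4=60-79%, 3=40-59%, 2=20-39%, 1=0-19% damage, assessed on day 13. Compound sprayed at 1000 g/h on soil-grown plants (day 1 pre-, day 8 post-emergence) kept at 24/16 °C, 14 h light.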

[2] = system: Echinochloa crus-galli (ECHCG); assay: Pre-emergence herbicidal glasshouse test on Echinochloa crus-galli; conditions: pre-emergence; 1000 g/h; evaluated after 13 days
Summary of the method: as §1

[3] = system: Ipomoea hederacea (IPOHE); assay: Post-emergence herbicidal glasshouse test on Ipomoea hederacea; conditions: post-emergence; 1000 g/h; evaluated after 13 days
Summary of the method: as §1

[4] = system: Alopecurus myosuroides (ALOMY); assay: Post-emergence herbicidal glasshouse test on Alopecurus myosuroides; conditions: post-emergence; 1000 g/h; evaluated after 13 days
Summary of the method: as §1

Setaria faberi (SETFA) [5] = assay: Pre-emergence herbicidal glasshouse test on Setaria faberi; conditions: pre-emergence; 1000 g/h; evaluated after 13 days
Summary of the method: as §1

Solanum nigrum (SOLNI) [6] = assay: Post-emergence herbicidal glasshouse test on Solanum nigrum; conditions: post-emergence; 1000 g/h; evaluated after 13 days
Summary of the method: as §1

[7] = system: Ipomoea hederacea (IPOHE); assay: Pre-emergence herbicidal glasshouse test on Ipomoea hederacea; conditions: pre-emergence; 1000 g/h; evaluated after 13 days
Summary of the method: as §1

Setaria faberi (SETFA) [8] = assay: Post-emergence herbicidal glasshouse test on Setaria faberi; conditions: post-emergence; 1000 g/h; evaluated after 13 days
Summary of the method: as §1

[9] = system: Amaranthus retoflexus (AMARE); assay: Pre-emergence herbicidal glasshouse test on Amaranthus retoflexus; conditions: pre-emergence; 1000 g/h; evaluated after 13 days
Summary of the method: as §1

[10] = system: Amaranthus retoflexus (AMARE); assay: Post-emergence herbicidal glasshouse test on Amaranthus retoflexus; conditions: post-emergence; 1000 g/h; evaluated after 13 days
Summary of the method: as §1

[11] = system: Alopecurus myosuroides (ALOMY); assay: Pre-emergence herbicidal glasshouse test on Alopecurus myosuroides; conditions: pre-emergence; 1000 g/h; evaluated after 13 days
Summary of the method: as §1

[12] = system: Echinochloa crus-galli (ECHCG); assay: Post-emergence herbicidal glasshouse test on Echinochloa crus-galli; conditions: post-emergence; 1000 g/h; evaluated after 13 days
Summary of the method: as §1

Compound	PRE Application SOLNI herbicidal damage (five point scale) (Solanum nigrum (SOLNI) [1])	PRE Application ECHCG herbicidal damage (five point scale) [2]	POST Application IPOHE herbicidal damage (five point scale) [3]	POST Application ALOMY herbicidal damage (five point scale) [4]	PRE Application SETFA herbicidal damage (five point scale) (Setaria faberi (SETFA) [5])	POST Application SOLNI herbicidal damage (five point scale) (Solanum nigrum (SOLNI) [6])	PRE Application IPOHE herbicidal damage (five point scale) [7]	POST Application SETFA herbicidal damage (five point scale) (Setaria faberi (SETFA) [8])	PRE Application AMARE herbicidal damage (five point scale) [9]	POST Application AMARE herbicidal damage (five point scale) [10]	PRE Application ALOMY herbicidal damage (five point scale) [11]	POST Application ECHCG herbicidal damage (five point scale) [12]
Cn1ncc(-c2c(F)cnc(F)c2F)c(O)c1=O [Compound 1.149]	1 (1=0-19% damage)	1 (1=0-19% damage)	1 (1=0-19% damage)	2 (2=20-39% damage)	1 (1=0-19% damage)	4 (4=60-79% damage)	1 (1=0-19% damage)	1 (1=0-19% damage)	1 (1=0-19% damage)	4 (4=60-79% damage)	1 (1=0-19% damage)	1 (1=0-19% damage)
CCn1ncc(-c2cc3cccnc3nc2C(F)(F)F)c(O)c1=O [Compound 5.001]	5 (5=80-100% damage)	5 (5=80-100% damage)	5 (5=80-100% damage)	5 (5=80-100% damage)	5 (5=80-100% damage)	5 (5=80-100% damage)	5 (5=80-100% damage)	5 (5=80-100% damage)	5 (5=80-100% damage)	5 (5=80-100% damage)	5 (5=80-100% damage)	5 (5=80-100% damage)
Cc1c(-c2cnn(C3CCCC3)c(=O)c2O)ccc(S(C)(=O)=O)c1C1=NOCC1 [Compound 1.007]	2 (2=20-39% damage)	4 (4=60-79% damage)	4 (4=60-79% damage)	4 (4=60-79% damage)	4 (4=60-79% damage)	5 (5=80-100% damage)	2 (2=20-39% damage)	4 (4=60-79% damage)	3 (3=40-59% damage)	5 (5=80-100% damage)	1 (1=0-19% damage)	5 (5=80-100% damage)
Cn1ncc(-c2ccc(C#N)cc2C(F)(F)F)c(O)c1=O [Compound 1.071]	5 (5=80-100% damage)	5 (5=80-100% damage)	5 (5=80-100% damage)	3 (3=40-59% damage)	4 (4=60-79% damage)	5 (5=80-100% damage)	2 (2=20-39% damage)	4 (4=60-79% damage)	5 (5=80-100% damage)	5 (5=80-100% damage)	4 (4=60-79% damage)	5 (5=80-100% damage)
Cn1cccc(-c2cnn(C)c(=O)c2O)c1=O [Compound 9.003]	1 (1=0-19% damage)	1 (1=0-19% damage)	2 (2=20-39% damage)	1 (1=0-19% damage)	1 (1=0-19% damage)	4 (4=60-79% damage)	1 (1=0-19% damage)	2 (2=20-39% damage)	2 (2=20-39% damage)	4 (4=60-79% damage)	1 (1=0-19% damage)	1 (1=0-19% damage)
CSc1ccn(-c2cnn(C)c(=O)c2O)c(=O)c1 [Compound 1.027]	4 (4=60-79% damage)	5 (5=80-100% damage)	5 (5=80-100% damage)	1 (1=0-19% damage)	3 (3=40-59% damage)	5 (5=80-100% damage)	1 (1=0-19% damage)	5 (5=80-100% damage)	5 (5=80-100% damage)	5 (5=80-100% damage)	1 (1=0-19% damage)	5 (5=80-100% damage)
Cn1ncc(-c2ccccc2[S+]([O-])C(F)(F)F)c(O)c1=O (stereo not drawn) [Compound 1.055]	4 (4=60-79% damage)	2 (2=20-39% damage)	4 (4=60-79% damage)	1 (1=0-19% damage)	1 (1=0-19% damage)	5 (5=80-100% damage)	2 (2=20-39% damage)	1 (1=0-19% damage)	5 (5=80-100% damage)	5 (5=80-100% damage)	1 (1=0-19% damage)	4 (4=60-79% damage)
Cn1ncc(-c2cccnc2OCC(F)F)c(O)c1=O [Compound 4.011]	1 (1=0-19% damage)	1 (1=0-19% damage)	3 (3=40-59% damage)	1 (1=0-19% damage)	1 (1=0-19% damage)	5 (5=80-100% damage)	1 (1=0-19% damage)	1 (1=0-19% damage)	1 (1=0-19% damage)	4 (4=60-79% damage)	1 (1=0-19% damage)	1 (1=0-19% damage)
Cc1ccc(-n2cccc(-c3cnn(C)c(=O)c3O)c2=O)cc1 [Compound 9.017]	1 (1=0-19% damage)	1 (1=0-19% damage)	2 (2=20-39% damage)	2 (2=20-39% damage)	1 (1=0-19% damage)	4 (4=60-79% damage)	2 (2=20-39% damage)	2 (2=20-39% damage)	1 (1=0-19% damage)	3 (3=40-59% damage)	2 (2=20-39% damage)	5 (5=80-100% damage)
C=CCn1cccc(-c2cnn(C)c(=O)c2O)c1=O [Compound 9.002]	1 (1=0-19% damage)	1 (1=0-19% damage)	2 (2=20-39% damage)	1 (1=0-19% damage)	1 (1=0-19% damage)	5 (5=80-100% damage)	1 (1=0-19% damage)	2 (2=20-39% damage)	1 (1=0-19% damage)	4 (4=60-79% damage)	1 (1=0-19% damage)	2 (2=20-39% damage)
C=CCn1ncc(-c2ccccc2S(C)(=O)=O)c(O)c1=O [Compound 2.001]	5 (5=80-100% damage)	5 (5=80-100% damage)	5 (5=80-100% damage)	5 (5=80-100% damage)	5 (5=80-100% damage)	5 (5=80-100% damage)	5 (5=80-100% damage)	5 (5=80-100% damage)	5 (5=80-100% damage)	5 (5=80-100% damage)	5 (5=80-100% damage)	5 (5=80-100% damage)

From US9693556B2, “Herbicidal pyridazinone derivatives” (SYNGENTA LIMITED, priority 2011, dated 2017)
